Read-outs that look alike come from different tables or passages of the source.
Legend:
[1] = Single ascending dose study in pre- and post-menopausal women, pharmacokinetics; assay type: in vivo, human; conditions: female, human, in vivo, 2.5 mg
Excerpt: The drug concentration in plasma and/or serum samples can be determined by a number of different ways, e.g. HPLC or LC-MS/MS analyses. […]
A minimal toxic dose (MTD) was not reached. […] Table 3 presents the PK parameters based on preliminary analysis of the concentration-time profile obtained from this study.

[2] = tested on: serum testosterone, estradiol, LH and FSH; conditions: 2.5 mg weekly, cited from earlier work; for free testosterone: fixed dosing interval

Structure (SMILES): N#Cc1ccc(C(c2ccc(C#N)cc2)n2cncn2)cc1 [Letrozole, letrozole]
- Tmax [1]: 1 h
- AUC(0-t) ([1]; AUC (0-tlast) Mean): 1670 ng·h/mL
- Cmax ([1]; Cmax Mean): 33.5 ng/mL
- half-life ([1]; T1/2 Mean): 69.6 h
- LH and FSH ([2]; 12 OHH men): increased LH and FSH
- total estradiol ([2]; 12 OHH men): suppressed total estradiol
- total testosterone ([2]; 12 OHH men, de Boer 2005, Loves 2008): increased total testosterone into the normal range
- free testosterone [2]: rose above the normal range in approximately half of the subjects
- free testosterone ([2]; listed as letrozole): excessive free testosterone levels in approximately half the subjects
